Active and inactive are the calls of the source.
Experiments:
Cytochrome P450 3A4 = Cytochrome P450 3A4 (Homo sapiens, UniProt P08684);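 note: CYP3A4 tested as one member of a cytochrome P450 panel screen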
Cytochrome P450 2C19 = Cytochrome P450 2C19 (Homo sapiens, UniProt P33261); assay: Cytochrome panel assay with activity outcomes. Panel member name: p450-cyp2c19 Compounds with AC50 equal or less than 10 uM are considered active; assay type: functional
Protein RecA = target: T1, Protein RecA (Mycobacterium tuberculosis, UniProt P9WHJ3); assay: Fluorescence Cell-Free Homogeneous Dose Retest to Identify Inhibitors of RecA-Intein Splicing Activity. [Related pubchem assays (depositor defined):AID2097, AID2223, AID489010, AID492950]; assay type: functional
T1 sequence (P9WHJ3 whole entry): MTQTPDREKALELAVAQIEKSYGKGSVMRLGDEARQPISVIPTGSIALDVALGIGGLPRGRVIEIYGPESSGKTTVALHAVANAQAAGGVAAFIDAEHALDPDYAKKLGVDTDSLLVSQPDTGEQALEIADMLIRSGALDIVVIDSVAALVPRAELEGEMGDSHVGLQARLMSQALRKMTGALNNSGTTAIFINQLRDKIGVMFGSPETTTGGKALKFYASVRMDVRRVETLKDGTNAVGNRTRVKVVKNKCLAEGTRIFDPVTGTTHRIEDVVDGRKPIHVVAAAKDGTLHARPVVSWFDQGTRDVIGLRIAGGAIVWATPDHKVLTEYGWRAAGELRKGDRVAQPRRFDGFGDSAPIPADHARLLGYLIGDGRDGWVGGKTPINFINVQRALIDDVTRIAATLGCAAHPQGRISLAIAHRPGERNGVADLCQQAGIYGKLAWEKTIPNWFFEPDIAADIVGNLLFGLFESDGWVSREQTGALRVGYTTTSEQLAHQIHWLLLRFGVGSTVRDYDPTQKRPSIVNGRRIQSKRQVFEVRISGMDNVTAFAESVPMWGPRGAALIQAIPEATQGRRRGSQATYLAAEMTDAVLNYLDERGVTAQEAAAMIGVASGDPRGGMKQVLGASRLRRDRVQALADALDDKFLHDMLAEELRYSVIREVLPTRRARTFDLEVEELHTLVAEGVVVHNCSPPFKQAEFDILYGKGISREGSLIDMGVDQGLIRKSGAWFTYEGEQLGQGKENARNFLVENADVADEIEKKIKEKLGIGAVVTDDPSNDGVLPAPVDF

[1] = target: T2, Replicative DNA helicase DnaB (Mycobacterium tuberculosis, UniProt P9WMR3); assay: DnaB intein splicing inhibitors, dose response, biochemical, cell-free fluorescence (AID 449749); assay type: functional
T2 sequence (P9WMR3 whole entry): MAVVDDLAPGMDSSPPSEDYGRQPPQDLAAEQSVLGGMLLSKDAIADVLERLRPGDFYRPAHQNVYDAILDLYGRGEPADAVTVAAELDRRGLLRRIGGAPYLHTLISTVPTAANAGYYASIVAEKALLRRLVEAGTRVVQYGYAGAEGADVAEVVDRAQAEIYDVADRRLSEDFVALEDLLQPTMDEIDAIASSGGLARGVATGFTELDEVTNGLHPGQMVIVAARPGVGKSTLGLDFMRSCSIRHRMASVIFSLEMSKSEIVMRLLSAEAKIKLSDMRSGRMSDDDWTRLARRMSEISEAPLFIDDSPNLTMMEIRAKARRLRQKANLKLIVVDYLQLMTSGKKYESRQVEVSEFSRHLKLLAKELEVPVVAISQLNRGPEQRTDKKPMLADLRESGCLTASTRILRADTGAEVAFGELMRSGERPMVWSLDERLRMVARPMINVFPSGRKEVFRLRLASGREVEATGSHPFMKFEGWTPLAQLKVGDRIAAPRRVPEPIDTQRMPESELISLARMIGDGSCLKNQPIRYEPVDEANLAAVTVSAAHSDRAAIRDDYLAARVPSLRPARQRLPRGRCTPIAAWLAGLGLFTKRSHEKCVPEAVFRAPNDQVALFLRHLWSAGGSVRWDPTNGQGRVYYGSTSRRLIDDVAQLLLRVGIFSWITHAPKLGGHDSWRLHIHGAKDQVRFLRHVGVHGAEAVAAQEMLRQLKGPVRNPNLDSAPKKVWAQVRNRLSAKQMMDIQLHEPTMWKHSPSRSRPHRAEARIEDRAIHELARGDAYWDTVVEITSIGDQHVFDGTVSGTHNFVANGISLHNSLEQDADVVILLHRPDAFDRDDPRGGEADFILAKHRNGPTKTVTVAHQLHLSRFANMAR

[2] = target: T3, Heat shock factor protein 1 (Mus musculus, UniProt P38532); assay: decrease of HSF1-responsive luciferase luminescence – cell-based, NIH3T3, dose retest, confirmation (AID 2382); assay type: functional;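 note: NIH3T3 fibroblasts with HSF1-driven luciferase reporter stressed by proteasome inhibitor MG132; luminescence from HSF1-driven luciferase expression after 8 hours of MG132 stress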
T3 sequence (P38532 whole entry): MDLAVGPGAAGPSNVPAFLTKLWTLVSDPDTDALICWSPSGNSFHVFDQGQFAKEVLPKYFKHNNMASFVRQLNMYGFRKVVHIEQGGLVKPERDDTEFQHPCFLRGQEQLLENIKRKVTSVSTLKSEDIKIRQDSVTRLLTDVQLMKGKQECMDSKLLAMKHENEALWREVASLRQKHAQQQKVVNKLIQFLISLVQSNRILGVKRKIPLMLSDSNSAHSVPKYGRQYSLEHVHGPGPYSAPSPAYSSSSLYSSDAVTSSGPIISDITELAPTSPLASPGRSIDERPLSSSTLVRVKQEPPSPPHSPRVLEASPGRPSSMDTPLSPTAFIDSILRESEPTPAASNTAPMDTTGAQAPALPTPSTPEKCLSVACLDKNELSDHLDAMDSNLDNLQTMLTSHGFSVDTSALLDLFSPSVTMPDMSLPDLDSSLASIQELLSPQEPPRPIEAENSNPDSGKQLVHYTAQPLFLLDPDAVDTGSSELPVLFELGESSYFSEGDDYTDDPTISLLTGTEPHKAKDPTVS

Cytochrome P450 1A2 = target: T4, Cytochrome P450 1A2 (Homo sapiens, UniProt P05177);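 note: PubChem cytochrome P450 panel assay, CYP1A2 panel member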
T4 sequence (P05177 whole entry): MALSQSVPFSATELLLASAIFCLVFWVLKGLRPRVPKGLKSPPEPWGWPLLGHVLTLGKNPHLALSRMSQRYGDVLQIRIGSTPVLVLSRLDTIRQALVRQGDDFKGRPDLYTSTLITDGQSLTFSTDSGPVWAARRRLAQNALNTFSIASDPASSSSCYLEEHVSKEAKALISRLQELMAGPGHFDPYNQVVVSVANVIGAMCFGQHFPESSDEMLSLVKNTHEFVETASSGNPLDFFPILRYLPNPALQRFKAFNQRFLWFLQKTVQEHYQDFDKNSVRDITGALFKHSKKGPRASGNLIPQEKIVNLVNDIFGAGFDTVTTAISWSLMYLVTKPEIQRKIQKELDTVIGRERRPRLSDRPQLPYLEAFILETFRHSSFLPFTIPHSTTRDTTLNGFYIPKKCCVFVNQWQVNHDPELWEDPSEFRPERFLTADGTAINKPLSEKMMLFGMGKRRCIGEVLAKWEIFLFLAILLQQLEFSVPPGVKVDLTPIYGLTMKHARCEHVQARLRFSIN

Chain of Cytochrome P450 3A4 (P08684 whole entry): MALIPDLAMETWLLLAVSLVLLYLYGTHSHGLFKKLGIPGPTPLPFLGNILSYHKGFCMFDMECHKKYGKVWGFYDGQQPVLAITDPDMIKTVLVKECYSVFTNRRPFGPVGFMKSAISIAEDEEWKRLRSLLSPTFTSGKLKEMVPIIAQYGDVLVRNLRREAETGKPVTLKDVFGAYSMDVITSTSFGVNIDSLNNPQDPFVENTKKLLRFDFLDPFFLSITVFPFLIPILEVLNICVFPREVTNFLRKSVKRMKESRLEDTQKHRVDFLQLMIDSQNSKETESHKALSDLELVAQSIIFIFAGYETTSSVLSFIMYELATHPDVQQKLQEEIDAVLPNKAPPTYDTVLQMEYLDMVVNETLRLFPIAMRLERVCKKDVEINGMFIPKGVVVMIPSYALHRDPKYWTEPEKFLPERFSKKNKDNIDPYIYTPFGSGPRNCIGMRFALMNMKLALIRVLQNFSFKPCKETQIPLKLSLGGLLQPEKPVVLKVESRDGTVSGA
Chain of Cytochrome P450 2C19 (P33261 whole entry): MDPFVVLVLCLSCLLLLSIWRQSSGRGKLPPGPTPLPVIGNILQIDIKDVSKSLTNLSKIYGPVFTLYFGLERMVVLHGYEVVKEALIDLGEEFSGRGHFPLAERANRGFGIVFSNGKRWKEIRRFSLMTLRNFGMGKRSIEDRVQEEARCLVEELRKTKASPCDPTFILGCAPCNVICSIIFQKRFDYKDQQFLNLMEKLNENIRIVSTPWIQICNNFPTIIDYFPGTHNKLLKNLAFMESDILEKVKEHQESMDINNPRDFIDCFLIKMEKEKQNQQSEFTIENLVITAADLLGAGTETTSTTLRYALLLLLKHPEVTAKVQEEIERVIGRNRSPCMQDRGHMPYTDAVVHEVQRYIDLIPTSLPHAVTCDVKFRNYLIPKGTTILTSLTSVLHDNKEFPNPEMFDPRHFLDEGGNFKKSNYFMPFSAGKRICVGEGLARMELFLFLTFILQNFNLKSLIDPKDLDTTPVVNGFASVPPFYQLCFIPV

COc1ccc(-c2nc(CSCC(=O)NCC3CCCO3)c(C)o2)cc1OC (centres undefined)
AC50 (Cytochrome P450 3A4): 39.8 µM (inconclusive)
AC50 (Cytochrome P450 2C19; read-out: AC50): 31.6 µM (inconclusive)

O=C1C(Cl)=C(N2CCCCCC2)C(=O)N1c1ccccc1
EC50 (Protein RecA): 10.3 µM (active)
AC50 [1]: > 380 µM (inactive)

COc1ccc(-c2noc(CCC(=O)Nc3ccc(C)c(C)c3)n2)cc1
EC50 [2]: > 195 µM (not active)

O=C(NC(=S)NC1C2CC3CC(C2)CC1C3)c1ccccc1 (centres undefined)
EC50 [2]: > 195 µM (not active)

N[C@]1(C(=O)O)CCc2cc(P(=O)(O)O)ccc21
AC50 (Cytochrome P450 1A2): 39.8 µM (inconclusive)
AC50 (Cytochrome P450 2C19; read-out: AC50): 15.8 µM (inconclusive)

O=C(c1ccco1)N1CCN=C1SCc1ccccc1F
EC50 [2]: > 195 µM (not active)

CC(=O)c1c(N2CCC(C(N)=O)CC2)nc(=S)n(-c2ccccc2)c1C
AC50 (Cytochrome P450 2C19; read-out: AC50): 31.6 µM (inconclusive)

O=C(CSC(=S)N1CCOCC1)Nc1nc(-c2ccccc2)c(-c2ccccc2)o1
EC50 [2]: > 195 µM (not active)

COC1(OC)N=C(NC(=O)Nc2ccccc2)C2(C#N)C(c3ccccc3)C12C#N (centres undefined)
AC50 (Cytochrome P450 1A2): 39.8 µM (inconclusive)
AC50 (Cytochrome P450 2C19; read-out: AC50): 5.01 µM (inconclusive)

CN1CCN(Cc2cc(=O)oc3ccc(Cl)cc23)CC1
EC50 (Protein RecA): > 380 µM (inactive)
AC50 [1]: > 380 µM (inactive)

CCOC(=O)N1CCN(C(=O)c2ccc(CS(=O)(=O)c3c(Cl)cccc3Cl)o2)CC1
EC50 [2]: > 195 µM (not active)

Cn1cc(-c2nc3cnc(N4CCOCC4)nc3n(C3CC3)c2=O)c2ccccc21
AC50 (Cytochrome P450 3A4): 7.94 µM (inconclusive)
AC50 (Cytochrome P450 1A2): 3.16 µM (inconclusive)
AC50 (Cytochrome P450 2C19): inconclusive

O=C(CN1C(=O)c2ccccc2S1(=O)=O)NCc1cccs1
EC50 [2]: > 195 µM (not active)

Cc1ccc(Cn2c(C3CCCN3c3nc(C)cs3)nc3cc(C(F)(F)F)ccc32)cc1 (centres undefined)
EC50 [2]: > 195 µM (not active)

Fc1ccc(Oc2nc(-c3ccccc3)nnc2C(F)(F)F)cc1
EC50 (Protein RecA): 2.28 µM (active)
AC50 [1]: 2.95 µM (active)

O=C(c1cc(F)c(F)cc1Cl)N1CCN(c2ccc([N+](=O)[O-])c3ncccc23)CC1
EC50 (Protein RecA): 11.8 µM (active)
AC50 [1]: 3.47 µM (active)

CCCC[C@@H](CNC)NC[C@H](Cc1ccc(O)cc1)NCCc1ccc(OCC)cc1
EC50 [2]: > 195 µM (not active)

Cc1ccc(SC(C)C(=O)NCc2cccnc2)cc1 (centres undefined)
AC50 (Cytochrome P450 3A4): 1 µM (inconclusive)
AC50 (Cytochrome P450 2C19; read-out: AC50): 7.08 µM (inconclusive)

COC(=O)c1cc(NC(=O)Nc2ccccc2OC)cc(C(=O)OC)c1
EC50 (Protein RecA): > 380 µM (inactive)

O=C(c1cccs1)[C@@H]1[C@@H]2C(=O)N(Cc3ccc4c(c3)OCO4)C(=O)[C@@H]2C2c3ccccc3C=CN21 (some centres undefined)
EC50 (Protein RecA): 3.22 µM (active)
AC50 [1]: 4.09 µM (active)

O=C(O)c1cccc2cc(-c3ccccc3)oc(=O)c12
EC50 [2]: > 195 µM (not active)

CCOC(=O)CSc1nc(C)cc(Oc2ccc(=O)n(C)n2)n1
EC50 [2]: 28.1 µM (active)

O=C(O)CCCNC(=O)CCCNC(=O)C(c1ccccc1)c1ccccc1
EC50 [2]: > 195 µM (not active)

COc1ccc(CNC(=O)CCCCCNC(=O)N2CCn3c2nc2ccccc23)cc1
EC50 [2]: > 195 µM (not active)

Cc1n[nH]c(O)c1C(c1cc2c(cc1Br)OCO2)c1c(C)n[nH]c1O
EC50 (Protein RecA): 0.352 µM (active)
AC50 [1]: 0.723 µM (active)

O=C(Oc1ccc(OC(=O)c2ccco2)c(S(=O)(=O)c2ccc(Br)cc2)c1)c1ccco1
AC50 (Cytochrome P450 3A4): 5.62 µM (inconclusive)
AC50 (Cytochrome P450 1A2): 2.24 µM (inconclusive)
AC50 (Cytochrome P450 2C19; read-out: AC50): 1.41 µM (inconclusive)

Cc1ccc2c(c1)c1c(n2CC(O)CN2CCOCC2)CCCC1 (centres undefined)
EC50 [2]: > 195 µM (not active)

Cc1ccc(S(=O)(=O)N2CCN(S(C)(=O)=O)C2)cc1
EC50 [2]: > 195 µM (not active)

CCOc1cc(/C=C2\C(=O)N(CCC#N)N=C2C)ccc1OCC(N)=O
EC50 (Protein RecA): 3.61 µM (active)
AC50 [1]: 6.01 µM (active)

N#CCCn1c(=O)c(CCc2ccccc2)nc2cnc(OCc3ccccc3)nc21
AC50 (Cytochrome P450 3A4): 0.2 µM (inconclusive)
AC50 (Cytochrome P450 1A2): 12.6 µM (inconclusive)
AC50 (Cytochrome P450 2C19; read-out: AC50): 39.8 µM (inconclusive)

N#C[C@H]1[C@H](c2ccccc2)[C@](C#N)(C(=O)c2ccccc2)[C@@H]2C=Cc3ccccc3N21
EC50 (Protein RecA): 8.36 µM (active)
AC50 [1]: > 380 µM (inactive)

CCSc1c([N+](=O)[O-])c(=O)n(-c2ccccc2)c2ccccc12
EC50 (Protein RecA): 155 µM (active)
AC50 [1]: 3.94 µM (active)

O=C(O)c1cccc(Cn2c(Cl)c(/C=N/Nc3ccccc3)sc2=O)c1
EC50 (Protein RecA): > 380 µM (inactive)
AC50 [1]: > 380 µM (inactive)

CCOc1cc(/C=N/NC(=O)CN2CCCCC2)ccc1OCc1ccccc1
AC50 (Cytochrome P450 2C19; read-out: AC50): 25.1 µM (inconclusive)

N#C/C(=N\O)c1nc(-c2ccccc2)cs1
AC50 (Cytochrome P450 3A4): 15.8 µM (inconclusive)
AC50 (Cytochrome P450 2C19; read-out: AC50): 39.8 µM (inconclusive)

COc1cc(/C=N/NC(=O)c2ccc(F)cc2)ccc1OC(=O)c1ccco1
EC50 (Protein RecA): 20 µM (active)
AC50 [1]: 24 µM (active)

COc1ccc(-c2cc(C(=O)NCc3cccnc3)no2)cc1OC
AC50 (Cytochrome P450 2C19; read-out: AC50): 28.2 µM (inconclusive)

From ChEMBL document CHEMBL1201862, “PubChem BioAssay data set” (2004)
